Converted amounts (≈) assume the structure as drawn. “And” between values parts separate entries of the source, which are not always exact repeats. Equal values may be shown once.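 Briefly, cells in 96-well plates were exposed to five compound concentrations for 48 h, and endpoints were estimated by linear interpolation. GI50 is the concentration that inhibits growth by half. Definition used: TGI = concentration required for complete inhibition of growth.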 Where a SMILES comes first, the peptide text is derived from it. [ ]: non-standard residue; d: D form. Ac5c = NC1(C(=O)O)CCCC1
What follows are compounds tested on P388/ADR leukemia (assay: NCI tumour cell line growth inhibition, 48 h).

SMILES	GI50 [ng/mL]	TGI [ng/mL]
Cc1c[nH]c2c(O)cc3c(c12)[C@H](CCl)CN3C(=O)c1cc2cc(NC(=O)Nc3ccc4[nH]c(C(=O)N5C[C@@H](CCl)c6c5cc(O)c5[nH]cc(C)c65)cc4c3)ccc2[nH]1	0.888 (≈ 0.00109 µM)	83 (≈ 0.102 µM)

What follows are compounds tested on MDA-N (assay: NCI tumour cell line growth inhibition, 48 h).

SMILES	TGI	GI50 [µM]
CO[C@@H]1/C=C\C=C(/C)C(=O)NC2=CC(=O)C(NCCN(C)C)=C(C[C@@H](C)C[C@@H](OC)[C@@H](O)[C@H](C)/C=C(\C)[C@H]1OC(N)=O)C2=O	1.92 µM and 2.18 µM	–
O=c1ccn(C2OC(CO)C(O)C2F)c(=O)[nH]1 (stereo not given)	> 100 µM	–
CCN(CC)CC(O)CNc1ccc(NCC2CO2)c2c1C(=O)c1ccccc1C2=O (stereo not given)	2.31 µM	0.257
Cc1c[nH]c2c(O)cc3c(c12)[C@H](CCl)CN3C(=O)c1cc2cc(NC(=O)Nc3ccc4[nH]c(C(=O)N5C[C@@H](CCl)c6c5cc(O)c5[nH]cc(C)c65)cc4c3)ccc2[nH]1	–	0.0123
CCN(CC)CCCC(C)Nc1c2ccc(Cl)cc2nc2ccc(OC)cc12 (stereo not given)	3.95 µM	–
COc1ccc([N+](=O)[O-])c2c(NCCCN(C)C)c3ccccc3nc12	1.55 µM	–
NC1(C(=O)NC2(C(=O)O)CCCC2)CCCC1 (H-[Ac5c]-[Ac5c]-OH)	> 100 µM	–
CN1CCN(CCCN)CC1	> 100 µM	–
Nc1ccc(N(S(=O)(=O)c2ccccc2)S(=O)(=O)c2ccccc2)c(Cl)c1	> 100 µM	–
COC(=O)CCc1cc(OC)c2c(c1)C(C(=O)OC)C(c1ccc(OC)c(OC)c1)O2 (stereo not given)	> 100 µM and 23.2 µM	–
CSc1nc(C)c2c(n1)SCC2	> 10 µM	–
CCC1(CC)C(=O)OC(=O)C1(CC)CC	> 100 µM	–
CC(=O)CC(=O)Nc1ccc2ccccc2c1	> 100 µM	–
O=C1c2ccccc2C(=O)N1CCCSc1ccccc1	> 100 µM	–
CCOC(=O)Nc1nc2ccc(Cn3cccc3)cc2[nH]1	0.965 µM	–
CCN(CC)CCC(=O)NC1c2ccc(Cl)cc2Oc2c(C)cccc21 (stereo not given)	32.3 µM	–

The compounds below were run on P388 leukemia (assay: NCI tumour cell line growth inhibition, 48 h).

SMILES	GI50
Cc1c[nH]c2c(O)cc3c(c12)[C@H](CCl)CN3C(=O)c1cc2cc(NC(=O)Nc3ccc4[nH]c(C(=O)N5C[C@@H](CCl)c6c5cc(O)c5[nH]cc(C)c65)cc4c3)ccc2[nH]1	0.000887 ng/mL and 0.888 ng/mL

— PubChem BioAssay (NCI)
